Measurements taken from a melting point compilation (Tetko et al.; mined from patent text by program, amines drawn as free bases though some values may be those of a salt).

| SMILES | melting point |
| --- | --- |
| COc1ccccc1CNC(=O)C(=O)NCCc1ccccn1 | 118 to 119 °C |
| O=C(CCCN1CCN(c2cccc(Cl)c2)CC1)N1CCc2ccccc21 | 102 to 107 °C |
| Cc1cc(NCC(C)C)c2[nH]ncc2n1 | 162 to 164 °C |
| CCOC(=O)c1cn(NCC=O)c2nc(C)ccc2c1=O | 210 to 212 °C |
| Nc1sc2c(c1C(=O)c1cccc(CF)c1)CCN(Cc1ccccc1)C2 | 58 to 60 °C |
| O=C(O)COc1c(Br)cc(C(=O)c2c(Cc3ccccc3)sc3ccccc23)cc1Br | 162 to 163 °C |
| O=c1oc2ccccc2c2c(-c3ccccc3)c3c4ccccc4ccn3c12 | 313 to 315 °C |
| NC(=O)N(O)Cc1cccc(C(O)C#Cc2ccsc2)c1 (configuration not stated) | 151 °C |
| CCc1[nH][nH]c(=O)c1Cc1ccc2ccccc2c1 | 145 to 147 °C |
| O=C(O)Cn1cc(Cc2nc3c(F)c(F)cc(F)c3s2)c2c(Cl)cccc21 | 203 to 206 °C |
| COc1ccc2sc(C(=O)O)c(Oc3ccccc3)c2c1 | 197 °C |
| Clc1ccc(CN2C(=NCCCn3ccnc3)c3cccc4cccc2c34)cc1 | 90 to 91 °C |
| O=C(O)[C@@H]1CCCN1C(=O)CCCS | 157 to 158 °C |
| N#Cc1c(C(F)(F)F)nn(-c2c(Cl)cc(C(F)(F)F)cc2Cl)c1N | 196 to 200 °C |
| Cn1cc(-c2ccccc2)c(=O)c(-c2ccc(F)cc2)c1 | 166 °C |
| COc1cc(C2=C(c3cn(CCCNC(=O)C(N)CO)c4ccccc34)C(=O)NC2=O)cc(OC)c1OC (configuration not stated) | 112 to 114 °C |
| Cn1cc(-c2ccc(C34CCCN(CC3)C4)cn2)cn1 (racemic) | 138 to 140 °C |
| CCN1CCc2ccc(Nc3ncc(C(F)(F)F)c(Nc4ccc(N5CCOCC5)cc4OC)n3)cc2CC1 | 167 to 170 °C |
| COc1cc(OCCNC(C)=O)cc(-c2nc3cc(OC)cc(OC)c3c(=O)[nH]2)c1 | 264 to 265 °C |
| O=C1Nc2cccnc2Nc2ccsc21 | 273 to 279 °C |
| COc1cc(C=CC(=O)Nc2c(-c3ccccc3)c3cc(C)cc(C)c3oc2=O)cc(OC)c1OC(C)=O | 245 to 248 °C |
| O=C(CN1C(=O)c2ccccc2C1=O)Nc1ccccc1C(=O)N1CCCc2ccccc21 | 130 °C |
| CCOC(=O)c1cc2c(cn1)[nH]c1ccc(N)cc12 | 226 to 228 °C |
| CC(O)Cn1nc(Br)c([N+](=O)[O-])c1NCc1ccccc1 (configuration not stated) | 81.3 °C |

| SMILES | melting point |
| --- | --- |
| Cc1cc(NC(=O)c2cnccn2)nc(C)c1Br | 206 °C |
| COc1ccc(CCNC(=O)C=Cc2ccc(C)cc2C)cc1S(N)(=O)=O | 202 °C |
| O=C1N(Cc2ccc(Cl)cc2)c2ccccc2C1(O)c1cccs1 (configuration not stated) | 140 to 143 °C |
| Nc1cccc(Cn2c(-c3ccccc3Cl)cc3ccc(Oc4cncnc4)cc32)n1 | 115 to 117 °C |
| CC(CC(C)(C)O)Nc1ncc2cc(Oc3ccc(F)cc3F)c(=O)n(C)c2n1 (configuration not stated) | 159 to 161 °C |
| CC(C)n1nc(-c2cccc(Cl)c2)c2ncccc2c1=O | 80 to 81 °C |
| COc1ccc(N2CCN(c3c(C)c(C)c4c(c3C)CC(C)(CN3CCCCC3)O4)CC2)cc1 (configuration not stated) | 122 to 125 °C |
| COC(=O)c1cc(N=C=S)c(C)cc1OC | 86 to 87.5 °C |
| CNc1cc(NC)cc(C(O)CS(C)(=O)=O)c1 (configuration not stated) | 106 °C |
| CNC(=O)c1cc(C)nc(NC(=O)c2cc(Cl)nn2-c2ncccc2Cl)n1 | 198 to 199 °C |
| CC(C)c1cc(C(=O)Nc2ccc(C(=O)O)c(Cl)c2)sc1C(C)C | 222 to 223 °C |
| CC(=O)OCC1OC(Cl)C(N=[N+]=[N-])C(OC(C)=O)C1OC(C)=O (configuration not stated) | 102 to 104 °C |
| O=S1N=CC(NCc2ccncc2)=N1 (configuration not stated) | 129 to 130 °C |
| COC(=O)C1=Cc2ccc(O)cc21 | 108 to 109 °C |
| COC(=O)c1c(OC)c(OC)c2oc(C)cc(=O)c2c1OC | 125 °C |
| CCOC(=O)C1=C(C)N(C(C)=O)C(c2csc(C)n2)=NC1c1cccc(C)c1 (configuration not stated) | 113 to 114 °C |
| COC(=O)c1ccccc1C=Nc1ccc(Oc2ccc(C(F)(F)F)cc2Cl)cc1O | 82 to 85 °C |
| CC1Cc2cc3c(cc2C(c2ccc([N+](=O)[O-])cc2)=NN1C(=O)CCCC(=O)O)OCO3 (configuration not stated) | 148 to 150 °C |
| CCn1ncc2c1ncc1c(=O)n(C)c3cc(C)nn3c12 | 206 to 207 °C |
| CC(=O)Oc1ccc(C=CC(=O)Nc2cc(C)c(OCc3ccccc3)c(C)c2)cc1OC(C)=O | 125 to 127 °C |
| CC(C)(C(N)=O)c1ccc(Cl)cc1 | 125 °C |
| CC(C)CNn1c(=O)c(Oc2ccc(F)cc2F)cc2cnc(SCc3ccccc3)nc21 | 132 to 134 °C |
| O=C(NCc1ccccc1)Nc1ccc(Cl)cc1 | 206 to 208 °C |
| COC(=O)c1ccc(COc2ccc3cc(-c4ccc(-c5ccccc5)n4Cc4ccc(C(F)(F)F)cc4)ccc3c2)c(C(=O)OC)c1 | 172 to 174 °C |

| SMILES | melting point |
| --- | --- |
| O=C1c2ccccc2C(=O)N1c1cc(Cl)c(OC(F)(F)C(F)(F)Br)c(Cl)c1 | 62 to 63.5 °C |
| O=C(CCl)NC1CCc2ccccc2C1=O (configuration not stated) | 118 to 122 °C |
| N#Cc1nn(-c2c(Cl)cc(C(F)(F)F)cc2Cl)c(N)c1-c1cc(Cl)oc1Cl | 193 to 194 °C |
| COc1cc2c(cc1OCc1ccccc1)CCN(Cc1cccc(C)c1)C2 | 81 to 82 °C |
| CCc1cc(C)cc(C)c1CC(=O)O | 128 to 129 °C |
| CC(Cl)C(=O)NCCO (configuration not stated) | 64 °C |
| O=C(c1ccc(OCCCCl)cc1)c1cccc2[nH]ccc12 | 86 °C |
| COc1cc(C#CC(=O)NCCCNC(=O)C#Cc2cc(OC)c(OC)c(OC)c2)cc(OC)c1OC | 158 to 160 °C |
| CCN1CC(OCC2CCC2)(C(F)(F)F)c2cc(F)ccc2NC1=O (configuration not stated) | 137 to 138 °C |
| CCOC(=O)c1cccc(Sc2nc(C)c(CC(=O)O)s2)n1 | 140 to 142 °C |
| N=C(N)Nc1nc(CSCCNc2c(NCc3ccncc3)c(=O)c2=O)cs1 | 172 to 175 °C |
| Cc1cc([N+](=O)[O-])ccc1N=C1SCC2(CCCC2)N1C1CCCC1 | 118 to 119 °C |
| O=C(O)Cc1nn(Cc2ccc(Br)c(Cl)c2)c(=O)c2ccccc12 | 186 °C |
| COc1ccc(/C(C)=C/C(=O)O)cc1OC | 73 to 74 °C |
| C=C(C)c1ccc(C(C)(C)OOC(C)(C)c2ccccc2)cc1 | 40 °C |
| CCOC(=O)c1[nH]c2cccnc2c1-c1ccc([N+](=O)[O-])cc1 | 234 to 236 °C |
| CC1(C)OC(=O)c2ccc(COc3c(F)cc([N+](=O)[O-])cc3F)cc21 | 125 to 127 °C |
| CCOC(=O)N(c1ccccc1)c1cc(Cl)ccc1-n1nc(C(=O)O)nc1CCl | 115 to 117 °C |
| CCCCCCCCC=CCCCCCCCCn1c(=O)[nH][nH]c1=O | 120 °C |
| CC(=O)N1CCC(Oc2ccc([N+](=O)[O-])cc2C)CC1 | 139 to 141 °C |
| CNC(=S)n1nc(Cc2ccccc2)nc1N | 173 to 175 °C |
| Clc1ccc(-c2ccc(Cl)nn2)cc1 | 202 to 204 °C |
| CCCCOC1=C(c2ccccc2)C(CCC(=O)O)OC1=O (configuration not stated) | 94 to 96 °C |
| O=C(OCc1ccccc1)[C@H](CCCCO)N1C(=O)c2ccccc2C1=O | 106 to 108 °C |
